Measurements reported in PubChem BioAssay AID256 (DTP/NCI, 2004).
“And” between values parts separate entries of the source, which are not always exact repeats. Equal entries are not always repeated. Toxic doses and inconclusive results are not listed. The calls were made as follows: active = survival T/C of 150% or more; inactive = T/C below 125% in these data.

Tested on: CD2F1 mice, L1210 leukemia ip, survival T/C
Assay: NCI In Vivo Anticancer Drug Screen. Data for tumor model L1210 Leukemia (intraperitoneal) in CD2F1 (CDF1) mice
Conditions: endpoint: mean survival time, higher = longer survival
Method in brief: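 Implant tumor; dose compound or vehicle; measure endpoint in both groups; report treated divided by control.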

[1] = dose: 50.0 mg/kg/injection, schedule: Q01DX001 (ip), vehicle: saline
[2] = dose: 50.0 mg/kg/injection, schedule: Q04DX003 (ip), vehicle: saline
[3] = dose: 100.0 mg/kg/injection, schedule: Q01DX001 (ip), vehicle: saline
[4] = dose: 100.0 mg/kg/injection, schedule: Q04DX003 (ip), vehicle: saline
[5] = dose: 200.0 mg/kg/injection, schedule: Q01DX001 (ip), vehicle: saline
[6] = dose: 200.0 mg/kg/injection, schedule: Q04DX003 (ip), vehicle: saline
[7] = dose: 100.0 mg/kg/injection, schedule: Q04DX003 (ip), vehicle: saline with Tween-80
[8] = dose: 200.0 mg/kg/injection, schedule: Q04DX003 (ip), vehicle: saline with Tween-80
[9] = dose: 400.0 mg/kg/injection, schedule: Q04DX003 (ip), vehicle: saline with Tween-80
[10] = dose: 6.25 mg/kg/injection, schedule: Q01DX009 (ip), vehicle: saline with Tween-80
[11] = dose: 12.5 mg/kg/injection, schedule: Q01DX009 (ip), vehicle: saline with Tween-80
[12] = dose: 25.0 mg/kg/injection, schedule: Q01DX009 (ip), vehicle: saline with Tween-80
[13] = dose: 100.0 mg/kg/injection, schedule: Q01DX009 (ip), vehicle: saline with Tween-80
[14] = dose: 200.0 mg/kg/injection, schedule: Q01DX009 (ip), vehicle: saline with Tween-80
[15] = dose: 75.0 mg/kg/injection, schedule: Q01DX001 (ip), vehicle: saline
[16] = dose: 400.0 mg/kg/injection, schedule: Q01DX009 (ip), vehicle: saline with Tween-80

Measured: T/C

Oc1ccc(Cl)cc1Cn1ccnc1
inactive: [1] 111 % of control | dose: 50.0 mg/kg/injection, schedule: Q01DX009 (ip), vehicle: saline 104 % of control | [2] 106 % of control | [3] 100 % of control | dose: 100.0 mg/kg/injection, schedule: Q01DX009 (ip), vehicle: saline 95 % of control and 110 % of control | dose: 100.0 mg/kg/injection, schedule: Q04DX002 (ip), vehicle: saline 115 % of control and 101 % of control | [4] 101 % of control | [5] 104 % of control | dose: 200.0 mg/kg/injection, schedule: Q01DX009 (ip), vehicle: saline 93 % of control and 109 % of control | dose: 200.0 mg/kg/injection, schedule: Q04DX002 (ip), vehicle: saline 103 % of control and 112 % of control | [6] 113 % of control

CN(C)CCCNC(CC#N)CCC#N (configuration not stated)
inactive: [4] 96 % of control | [6] 95 % of control

Cc1ccc(S(=O)(=O)N2CCn3ncc(C#N)c32)cc1
inactive: dose: 12.5 mg/kg/injection, schedule: Q01DX009 (ip), vehicle: Klucel (hydroxypropylcellulose) (HPC) 98 % of control | dose: 25.0 mg/kg/injection, schedule: Q01DX009 (ip), vehicle: Klucel (hydroxypropylcellulose) (HPC) 95 % of control | dose: 50.0 mg/kg/injection, schedule: Q01DX009 (ip), vehicle: Klucel (hydroxypropylcellulose) (HPC) 97 % of control | dose: 100.0 mg/kg/injection, schedule: Q01DX009 (ip), vehicle: Klucel (hydroxypropylcellulose) (HPC) 87 % of control | dose: 200.0 mg/kg/injection, schedule: Q01DX009 (ip), vehicle: Klucel (hydroxypropylcellulose) (HPC) 89 % of control | dose: 400.0 mg/kg/injection, schedule: Q01DX009 (ip), vehicle: Klucel (hydroxypropylcellulose) (HPC) 95 % of control

CCOC(=O)NC(NC(=O)OCC)C(Cl)Cl
inactive: dose: 100.0 mg/kg/injection, schedule: Q01DX001 (ip), vehicle: saline with Tween-80 103 % of control | dose: 200.0 mg/kg/injection, schedule: Q01DX001 (ip), vehicle: saline with Tween-80 105 % of control | dose: 400.0 mg/kg/injection, schedule: Q01DX001 (ip), vehicle: saline with Tween-80 97 % of control

NS(=O)(=O)c1ccc(N=Nc2ccc([As](=O)(O)O)cc2)cc1
inactive: [2] 104 % of control | [4] 101 % of control | [6] 101 % of control

CCC(C)(C)N
inactive: [4] 100 % of control | [6] 106 % of control | dose: 400.0 mg/kg/injection, schedule: Q04DX003 (ip), vehicle: saline 103 % of control

CC(C)(C)c1ccc(SC(=O)c2ccc(C(=O)Sc3ccc(C(C)(C)C)cc3)cc2)cc1
inactive: dose: 25.0 mg/kg/injection, schedule: Q04DX002 (ip), vehicle: saline with Tween-80 91 % of control | dose: 50.0 mg/kg/injection, schedule: Q04DX002 (ip), vehicle: saline with Tween-80 87 % of control | dose: 100.0 mg/kg/injection, schedule: Q04DX002 (ip), vehicle: saline with Tween-80 91 % of control and 102 % of control

CCN(CC)C(=O)/C=C/c1ccccc1
inactive: [7] 103 % of control | [8] 101 % of control | [9] 103 % of control

Oc1ccccc1/C=N/NC(=S)NC1CC2C=CC1C2 (configuration not stated)
inactive: dose: 12.5 mg/kg/injection, schedule: Q01DX009 (ip), vehicle: olive oil, sesame oil, peanut oil 98 % of control | dose: 25.0 mg/kg/injection, schedule: Q01DX009 (ip), vehicle: olive oil, sesame oil, peanut oil 97 % of control | dose: 50.0 mg/kg/injection, schedule: Q01DX009 (ip), vehicle: olive oil, sesame oil, peanut oil 98 % of control | dose: 100.0 mg/kg/injection, schedule: Q01DX009 (ip), vehicle: olive oil, sesame oil, peanut oil 94 % of control | dose: 200.0 mg/kg/injection, schedule: Q01DX009 (ip), vehicle: olive oil, sesame oil, peanut oil 98 % of control | dose: 400.0 mg/kg/injection, schedule: Q01DX009 (ip), vehicle: olive oil, sesame oil, peanut oil 100 % of control

CCC(=O)OC1(c2ccccc2)CCN(C/C=C/c2ccc(F)cc2)CC1
inactive: [10] 98 % of control | [11] 98 % of control | [12] 110 % of control

O=C1N=C(Oc2ccccc2)SC1=O
inactive: [11] 95 % of control and 104 % of control | [12] 116 % of control and 101 % of control | dose: 50.0 mg/kg/injection, schedule: Q01DX009 (ip), vehicle: saline with Tween-80 103 % of control and 106 % of control | [13] 97 % of control and 101 % of control | [14] 90 % of control

Nc1nc(N)c2c(n1)CN(c1ccccc1)C2
inactive: [15] 102 % of control | dose: 150.0 mg/kg/injection, schedule: Q01DX001 (ip), vehicle: saline 104 % of control | dose: 300.0 mg/kg/injection, schedule: Q01DX001 (ip), vehicle: saline 106 % of control

O=C(O)C1CCC(C(=O)O)S1 (configuration not stated)
inactive: [3] 96 % of control | [5] 101 % of control | dose: 400.0 mg/kg/injection, schedule: Q01DX001 (ip), vehicle: saline 110 % of control

O=P(Cl)(Oc1cccc2c(OP(=O)(Cl)N(CCCl)CCCl)cccc12)N(CCCl)CCCl (configuration not stated)
inactive: dose: 31.25 mg/kg/injection, schedule: Q01DX001 (ip), vehicle: distilled water + Tween-80 100 % of control | dose: 62.5 mg/kg/injection, schedule: Q01DX001 (ip), vehicle: distilled water + Tween-80 101 % of control | dose: 125.0 mg/kg/injection, schedule: Q01DX001 (ip), vehicle: distilled water + Tween-80 91 % of control | dose: 250.0 mg/kg/injection, schedule: Q01DX001 (ip), vehicle: distilled water + Tween-80 95 % of control | dose: 500.0 mg/kg/injection, schedule: Q01DX001 (ip), vehicle: distilled water + Tween-80 92 % of control

O=C1NC(=O)C2CCCCC12 (configuration not stated)
inactive: [13] 100 % of control | [7] 97 % of control | [14] 95 % of control | [8] 101 % of control | [16] 95 % of control | [9] 95 % of control

O=P(O)(c1ccccc1CBr)c1ccccc1CBr
inactive: [15] 90 % of control

O=C(O)C(S)C(S)C(=O)O.[As] (configuration not stated)
inactive: dose: 25.0 mg/kg/injection, schedule: Q04DX003 (ip), vehicle: saline 95 % of control | [1] 89 % of control | [2] 92 % of control | [3] 100 % of control | [4] 100 % of control

Cc1c(Cl)cccc1NS(=O)(=O)c1cccc([N+](=O)[O-])c1
inactive: [7] 88 % of control | [8] 92 % of control | [9] 86 % of control

[C-]#[N+]CCS(=O)(=O)CC[N+]#[C-]
inactive: [13] 94 % of control | [7] 102 % of control | [14] 94 % of control | [8] 102 % of control | [16] 100 % of control | [9] 89 % of control

Cc1cccc(C)c1NC(=O)c1ccccc1Cl
inactive: [7] 98 % of control | [8] 97 % of control | [9] 89 % of control

COC1OC(C(COC(C)=O)OC(C)=O)C(OC(C)=O)C(OC(C)=O)C1OC(C)=O (configuration not stated)
inactive: [13] 95 % of control | [14] 102 % of control | [16] 104 % of control

CCOc1ccc(Nc2nc(C(Cl)(Cl)Cl)cc(C(Cl)(Cl)Cl)n2)cc1CN(CC)CC
inactive: [10] 101 % of control | dose: 6.25 mg/kg/injection, schedule: Q04DX003 (ip), vehicle: saline with Tween-80 97 % of control | [11] 100 % of control | dose: 12.5 mg/kg/injection, schedule: Q04DX003 (ip), vehicle: saline with Tween-80 101 % of control | [12] 102 % of control | dose: 25.0 mg/kg/injection, schedule: Q04DX003 (ip), vehicle: saline with Tween-80 95 % of control
